The target of test [1] is T1, truncated His-MBP-Tev-KLHDC2 (residues 1-363) (Homo sapiens, UniProt Q9Y2U9).
T1 construct: truncated His -MBP-Tev-KLHDC2 (residues 1-363) purified from E. coli; made in house; host or cells: E. coli
T1 sequence (Q9Y2U9 1-363): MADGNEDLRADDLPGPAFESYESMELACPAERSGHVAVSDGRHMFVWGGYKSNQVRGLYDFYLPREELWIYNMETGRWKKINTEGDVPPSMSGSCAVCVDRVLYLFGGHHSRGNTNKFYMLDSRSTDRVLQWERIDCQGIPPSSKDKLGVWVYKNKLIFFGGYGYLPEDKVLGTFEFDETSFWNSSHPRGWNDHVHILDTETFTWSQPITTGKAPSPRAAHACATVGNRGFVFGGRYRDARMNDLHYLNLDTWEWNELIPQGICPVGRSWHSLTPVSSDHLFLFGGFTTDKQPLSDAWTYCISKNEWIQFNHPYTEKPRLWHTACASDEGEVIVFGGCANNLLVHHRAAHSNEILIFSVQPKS
Kind of test: KLHDC2 FP competition binding assay. The conditions noted are these: 15 nM KLHDC2 (residues 1-363), 10 nM fluorescein-labeled diglycine peptide probe, read-out: KLHDC2 binding Human FP: average external IC50.

In test [2] the target is T1, truncated His-MBP-Tev-KLHDC2 (residues 1-363). As to the kind of experiment: KLHDC2 HTRF binding assay. The conditions noted are these: 1 nM KLHDC2 (residues 1-363), fluorescein-labeled diglycine peptide probe. (In TR-FRET formats the signal depends on donor and acceptor labels being close together.)

Where only a bound is given, the exact number is not on record here.

As usually defined, the IC50 is the concentration that inhibits the measured activity by half. For the compound `O=C(O)Cc1cc(NC(=O)c2cccc(-c3cccnc3)c2)ccc1Cl` [I-60], the IC50 was more than 5 µM in test [1] and 500 to 5000 nM in test [2].

As to `CC1CCN(c2cccnc2)CC1C(=O)Nc1ccc(=O)n(CC(=O)O)c1` (centres unmarked) [I-61], the IC50 in test [1] lay within 0.5 to 5 µM; in test [2] it was 50 to 500 nM.

With `O=C(O)Cn1cc(NC(=O)c2cccc(-c3cccnc3)c2)c(C2CC2)cc1=O` [I-62], the IC50 is more than 5 µM in test [1] and 500 to 5000 nM in test [2].

With `O=C(O)Cn1cc(NC(=O)[C@@H]2CCCN(c3cccnc3)C2)c(C(F)(F)F)cc1=O` [I-63], the IC50 in test [1] is more than 5 µM; in test [2], 500 to 5000 nM.

As to `O=C(O)Cn1cc(NC(=O)[C@H]2C[C@H](C(F)(F)F)CN(c3cccnc3)C2)ccc1=O` [I-64], the IC50 lay within 0.5 to 5 µM in test [1] and 50 to 500 nM in test [2].

As to `O=C(O)Cn1cc(NC(=O)[C@@H]2C[C@H](C(F)(F)F)CN(c3cccnc3)C2)ccc1=O` [I-65], the IC50 in test [1] was in the range of 0.5 to 5 µM; in test [2], 50 to 500 nM.

For `C[C@@]1(C(=O)Nc2ccc(=O)n(CC(=O)O)c2)CCCN(c2cccnc2)C1` [I-66], the IC50 in test [1] was more than 5 µM; in test [2], 500 to 5000 nM.

On to `O=C(O)Cn1cc(NC(=O)[C@H]2CCCN(c3cccnc3)C2)c(C(F)(F)F)cc1=O` [I-67], for which the IC50 in test [1] is more than 5 µM; in test [2], more than 5000 nM.

For `O=C(O)Cn1cc(N2CCc3cc(-c4cccnc4)ccc3C2=O)ccc1=O` [I-68], the values for the IC50 in test [1] and in test [2] were more than 5 µM and 500 to 5000 nM, respectively.

Consider `N#CCn1cc(NC(=O)c2cccc(-c3cccnc3)c2)ccc1=O` [I-69], for which the IC50 in test [1] was more than 5 µM; in test [2], more than 5000 nM.

Regarding `Cc1c(NC(=O)c2cccc(-c3cccnc3)c2)ccc(=O)n1CC(=O)O` [I-70], the IC50 is more than 5 µM in test [1] and more than 5000 nM in test [2].

`C[C@@H](C(=O)O)n1cc(NC(=O)c2cccc(-c3cccnc3)c2)ccc1=O` [I-71]: the IC50 in test [1] is more than 5 µM; in test [2], more than 5000 nM.

With `C[C@H](C(=O)O)n1cc(NC(=O)c2cccc(-c3cccnc3)c2)ccc1=O` [I-72], the values for the IC50 in test [1] and in test [2] were more than 5 µM and 500 to 5000 nM, respectively.

For `O=C(O)Cn1cc(NC(=O)c2cccc(-c3cccnc3)c2)c(C(F)(F)F)cc1=O` [I-73], the figures for the IC50 in test [1] and in test [2] were more than 5 µM and 500 to 5000 nM, respectively.

In the case of `O=C(O)Cn1cc(N2CCc3cccc(-c4cccnc4)c3C2=O)ccc1=O` [I-74], the IC50 in test [1] is more than 5 µM; in test [2], more than 5000 nM.

With `C[C@]1(C(=O)Nc2ccc(=O)n(CC(=O)O)c2)CCCN(c2cccnc2)C1` [I-75], the IC50 was 0.5 to 5 µM in test [1] and 500 to 5000 nM in test [2].

For `CS(=O)(=O)NC(=O)Cn1cc(NC(=O)c2cccc(-c3cccnc3)c2)ccc1=O` [I-78], the IC50 in test [1] is more than 5 µM; in test [2] it was more than 5000 nM.

Regarding `O=C(Nc1ccc(=O)n(Cc2nn[nH]n2)c1)c1cccc(-c2cccnc2)c1` [I-79], the IC50 is more than 5 µM in test [1] and more than 5000 nM in test [2].

With `O=C(O)Cn1cc(N2Cc3cccc(-c4cccnc4)c3C2=O)ccc1=O` [I-80], the figures for the IC50 in test [1] and in test [2] were more than 5 µM and more than 5000 nM, respectively.

For the compound `O=C(O)Cn1cc(N2Cc3ccc(-c4cccnc4)cc3C2=O)ccc1=O` [I-81], the IC50 in test [1] is more than 5 µM; in test [2], more than 5000 nM.

For the compound `O=C(O)Cn1cc(NC(=O)[C@@H]2CCCN(c3cccnc3)C2)c(Cl)cc1=O` [I-82], the IC50 in test [1] is more than 5 µM; in test [2], 500 to 5000 nM.

As to `O=C(O)Cn1cc(NC(=O)[C@H]2CCCN(c3cccnc3)C2)c(Cl)cc1=O` [I-83], the results for the IC50 in test [1] and in test [2] were 0.5 to 5 µM and 50 to 500 nM, respectively.

For `Cc1cc(=O)n(CC(=O)O)cc1NC(=O)[C@H]1CCCN(c2cccnc2)C1` [I-84], the IC50 in test [1] lay within 0.5 to 5 µM; in test [2], 50 to 500 nM.

Regarding `O=C(O)Cn1cc(NC(=O)c2nccc(-c3cccnc3)n2)ccc1=O` [I-85], the 50% inhibitory concentration (IC50) in test [1] was in the range of 0.5 to 5 µM; in test [2] it was 500 to 5000 nM.

For the compound `O=C(O)CN1CC(NC(=O)c2cccc(-c3cccnc3)c2)CCC1=O` (centres unmarked) [I-86], the IC50 in test [1] is more than 5 µM; in test [2], more than 5000 nM.

`O=C(O)Cn1cc(Nc2ncnc3c(-c4cccnc4)cccc23)ccc1=O` [I-87]: the IC50 in test [1] is more than 5 µM; in test [2], more than 5000 nM.

For the compound `O=C(O)Cn1cc(NC(=O)c2cc(-c3cccnc3)c3ccccc3c2)ccc1=O` [I-88], the IC50 in test [1] was 0.5 to 5 µM; in test [2], 500 to 5000 nM.

Consider `O=C(O)Cn1cc(N2CCc3ccc(-c4cccnc4)cc3C2=O)ccc1=O` [I-89], for which the IC50 in test [1] was in the range of 0.5 to 5 µM; in test [2] it was 50 to 500 nM.

Regarding `O=C(O)CC1CN(C(=O)c2cccc(-c3cccnc3)c2)CCO1` (centres unmarked) [I-90], the concentration for half-maximal inhibition (IC50) is more than 5 µM in test [1] and more than 5000 nM in test [2].

Turning to `O=C(O)Cn1cc(NC(=O)[C@H]2CCCN(c3cccnc3)C2)ccc1=O` [I-91], the results for the IC50 in test [1] and in test [2] were 0.05 to 0.5 µM and less than 50 nM, respectively.

Regarding `O=C(O)Cn1cc(NC(=O)[C@@H]2CCCN(c3cccnc3)C2)ccc1=O` [I-92], the IC50 lay in the range of 0.5 to 5 µM in test [1] and 50 to 500 nM in test [2].

With `O=C(O)Cn1cc(Nc2nccc3c(-c4cccnc4)cccc23)ccc1=O` [I-93], the results for the IC50 in test [1] and in test [2] were more than 5 µM and more than 5000 nM, respectively.

As for `O=C(O)CCn1cc(NC(=O)c2cccc(-c3cccnc3)c2)ccc1=O` [I-94], the IC50 in test [1] was more than 5 µM; in test [2], more than 5000 nM.

In the case of `O=C(O)Cn1cc(N2CCc3ccccc3C2=O)ccc1=O` [I-95], the figures for the IC50 in test [1] and in test [2] were more than 5 µM and 500 to 5000 nM, respectively.

`Cc1cc(=O)n(CC(=O)O)cc1NC(=O)c1cccc(-c2cccnc2)c1` [I-96]: the IC50 fell in the range of 0.5 to 5 µM in test [1] and 50 to 500 nM in test [2].

Regarding `O=C(O)Cn1cc(NC(=O)c2cccc(-c3cccnc3)c2)c(Cl)cc1=O` [I-97], the results for the IC50 in test [1] and in test [2] were 0.5 to 5 µM and 50 to 500 nM, respectively.

Consider `CCOC(=O)Cn1cc(NC(=O)c2cccc(-c3cccnc3)c2)ccc1=O` [I-98], for which the IC50 in test [1] is more than 5 µM; in test [2], more than 5000 nM.

As to `NCCCCCCCCCc1ccc2c(-c3cccc(C(=O)Nc4ccc(=O)n(CC(=O)O)c4)c3)cncc2c1` [I-107], the values for the IC50 in test [1] and in test [2] were more than 5 µM and less than 50 nM, respectively.

With `NCCCCCCCCCc1cccc2c(-c3cccc(C(=O)Nc4ccc(=O)n(CC(=O)O)c4)c3)cncc12` [I-109], the IC50 is more than 5 µM in test [1] and 50 to 500 nM in test [2].

As for `NCCCCCCc1cccc2c(-c3cccc(C(=O)Nc4ccc(=O)n(CC(=O)O)c4)c3)cncc12` [I-110], the IC50 in test [1] is more than 5 µM; in test [2], 50 to 500 nM.

On to `NC(=O)Cn1cc(NC(=O)c2cccc(-c3cncc4ccccc34)c2)ccc1=O` [I-122], for which the IC50 in test [1] was more than 5 µM; in test [2] it was more than 5000 nM.

Regarding `NC(=O)Cn1cc(NC(=O)c2cccc(-c3cccnc3)c2)ccc1=O` [I-123], the IC50 in test [1] was more than 5 µM; in test [2], more than 5000 nM.

Regarding `O=C(O)Cn1cc(NC(=O)c2cccc(-c3cncc4ccccc34)c2)ccc1=O` [I-131], the IC50 in test [1] is 0.5 to 5 µM; in test [2] it was less than 50 nM.

In the case of `CC(C)Cn1ccc2c(C(=O)Nc3ccc(=O)n(CC(=O)O)c3)ccnc21` [I-132], the IC50 was more than 5 µM in test [1] and 500 to 5000 nM in test [2].

Regarding `CC(C)Cn1cnc2c(C(=O)Nc3ccc(=O)n(CC(=O)O)c3)cccc21` [I-133], the IC50 in test [1] is more than 5 µM; in test [2], 500 to 5000 nM.

For `COc1cc(-c2ccc(Cl)cc2)ccc1C(=O)Nc1ccc(=O)n(CC(=O)O)c1` [I-134], the results for the IC50 in test [1] and in test [2] were 0.5 to 5 µM and 50 to 500 nM, respectively.

Turning to `COc1cc(-c2ccc(C)cc2)ccc1C(=O)Nc1ccc(=O)n(CC(=O)O)c1` [I-135], the IC50 in test [1] is more than 5 µM; in test [2], 500 to 5000 nM.

Turning to `CC(C)Cn1ncc2c(C(=O)Nc3ccc(=O)n(CC(=O)O)c3)cccc21` [I-136], the IC50 in test [1] is more than 5 µM; in test [2] it was 500 to 5000 nM.

For the compound `NCCCCCCn1ccc2c(C(=O)Nc3ccc(=O)n(CC(=O)O)c3)cccc21` [I-137], the IC50 in test [1] is more than 5 µM; in test [2], more than 5000 nM.

Take `O=C(O)Cn1cc(NC(=O)c2cccc(-c3nc4ccccc4s3)c2)ccc1=O` [I-138]: the IC50 in test [1] was in the range of 0.5 to 5 µM; in test [2] it was 50 to 500 nM.

With `O=C(O)Cn1cc(NC(=O)c2cccc3[nH]ccc23)ccc1=O` [I-139], the IC50 was more than 5 µM in test [1] and 500 to 5000 nM in test [2].

Consider `O=C(O)Cn1cc(NC(=O)N2CCC(c3ccccc3)CC2)ccc1=O` [I-140], for which the IC50 is more than 5 µM in test [1] and more than 5000 nM in test [2].

Take `O=C(O)Cn1cc(NC(=O)c2cccc(-c3cccnc3)n2)ccc1=O` [I-141]: the IC50 is more than 5 µM in test [1] and 500 to 5000 nM in test [2].

Regarding `O=C(O)Cn1cc(NC(=O)c2cc(-c3cccnc3)ccn2)ccc1=O` [I-142], the IC50 is 0.5 to 5 µM in test [1] and 50 to 500 nM in test [2].

As to `COc1cc(-c2ccsc2)ccc1C(=O)Nc1ccc(=O)n(CC(=O)O)c1` [I-143], the IC50 in test [1] is 0.5 to 5 µM; in test [2], 500 to 5000 nM.

Take `NCCCCCCc1ccc(C(=O)Nc2ccc(=O)n(CC(=O)O)c2)cc1-c1cccnc1` [I-144]: the IC50 in test [1] fell in the range of 0.5 to 5 µM; in test [2], 500 to 5000 nM.

As to `Cn1ccc2c(C(=O)Nc3ccc(=O)n(CC(=O)O)c3)cccc21` [I-145], the IC50 in test [1] was more than 5 µM; in test [2] it was 500 to 5000 nM.

For `CC(C)(C)OC(=O)NCCCCCCc1ccc(C(=O)Nc2ccc(=O)n(CC(=O)O)c2)cc1-c1cccnc1` [I-146], the IC50 lay within 0.05 to 0.5 µM in test [1] and 50 to 500 nM in test [2].

For the origin of these results see patent US20250214969A1, “PROTEIN DEGRADERS AND USES THEREOF” (Kymera Therapeutics, Inc., priority 2022, published 2025).
